The source of these data is patent US20250186410A1, “DUAL INHIBITORS OF TRYPTOPHAN DIOXYGENASES (IDO1 AND TDO) AND THEIR USE IN THERAPY” (ANTIDO THERAPEUTICS INTERNATIONAL SÀRL, priority 2022, published 2025).

Molecules are shown by their SMILES.

The subject of one data set is LLC-CR cells. The conditions noted are these: cited from earlier work.
Data set [1] has as its system LLC (mouse Lewis lung cancer cells). Put plainly: Growth inhibition of parental LLC cells. It counts as cell-based. The conditions noted are these: 24 h. The protocol: Cisplatin resistant mouse cell lines (LLC-CR) were derived from LLC (mouse Lewis lung cancer cells (epidermoid carcinoma), ATCC) through treatment with increasing doses of cisplatin intermittently. LLC-CR clones were maintained in half GI50 dosage concentration. […] The cultures were observed daily and allowed to grow until they reached an initial cell density. […] After the cells recovered from cisplatin toxicity, they were treated again with increasing dosage of cisplatin for 24 h. These cells are seeded at 500-1000 cells per dish and cultured for 5-7 days. Clones are selected and expanded as well as tested for cisplatin sensitivity. Similar processes of exposure are carried out for a third and fourth time to generate higher resistant clones. At the end, the resistance clones (LLC-CR) were maintained in media completed with 1 μg/ml (half GI50 dosage) of cisplatin.

Data set [2] concerns immune cells in Pan02 tumors. As to the kind of experiment: FACS analysis of Pan02 tumors. It counts as in vivo, mouse. Particulars: Day 34, oxaliplatin 6 mg/kg i.p. BIW, AT-0174 120 mg/kg p.o. QD. The protocol: On Day 34, all tumor-bearing mice were sacrificed, and tumors were collected for FACS analysis. FACS panels were:
Panel A: L/D, CD45, CD3, CD4, CD8, CD11b, CD25, IFN-γ, Foxp3.
Panel B: L/D, CD45, CD3, CD11b, NKG2D, F4/80.
Flow cytometry was conducted using a Beckman Cytoflex LX and antibodies from Thermofisher and Biolegend, using standard methods.
A general note: A flow cytometer gives signals particle by particle.

The next data set concerns Pan02 tumors. As to the kind of experiment: Tumor volume, mouse subcutaneous Pan02 syngeneic model of pancreatic cancer. It counts as in vivo. Particulars: for tumor volume, Mean: oxaliplatin 6 mg/kg i.p. BIW, AT-0174 120 mg/kg p.o. QD Day 7-32. The protocol:
(§1) Female C57BL/6 mice were used in the study, with ad libitum access to rodent food and water throughout the study period.
(§2) Murine pancreatic Pan02 cancer cells were cultured in a 37° C. incubator containing 5% CO2 with 10% FBS in DMEM medium. The cells were sub-cultured within 10 passages before inoculated into the mice. 1*10^6 PANC02 cells in 100 μL serum-free medium mixed with Matrigel (v/v 1:1) were subcutaneously inoculated at the right flank of each mouse under anesthetized with 2-5% isoflurane before inoculation.
Tumor volume: The tumor volume (V) was calculated as follows: V=(length×width^2)/2. Tumor volume was measured and recorded three times per week after grouping.
The individual relative tumor volume (RTV) was calculated as follows: RTV=Vt/V0, where Vt is the volume on each day, and V0 is the volume at the beginning of the treatment.

The nature of data set [3]: Body weight and clinical observations, Pan02 syngeneic model. The conditions noted are these: for Body weight, Mean: oxaliplatin 6 mg/kg i.p. BIW, AT-0174 120 mg/kg p.o. QD Day 7-32. The data set is classed as in vivo, mouse. The protocol:
as §1, §2
Body weight: Mice body weights were measured and recorded three times per week after grouping. Animals were also weighed in the event of accidental death or near-death euthanasia.

For `N.N.[Cl][Pt][Cl]` [cisplatin], in the data set on LLC-CR cells (LLC-CR cells), the “GI50 concentration in resistant clones” value was approximately 2 µg/mL. In addition, the “fold resistance of LLC-CR” value in the data set on LLC-CR cells (LLC-CR versus parental LLC) is on record as 3-5 fold. Also, the “50% growth inhibition (GI50) concentration” value in data set [1] stood at 0.4 µg/mL.
For `O=C1[O][Pt]2([NH][C@@H]3CCCC[C@H]3[NH]2)[O]C1=O` [Oxaliplatin], the “CD4+ Tregs” value in data set [2] is reported as 25.40%. The “CD8+ CD3+ Tcells” value in data set [2] is on record as 31.62%. The “tumor volume, Mean” value in the data set with Pan02 tumors (Pan02, day 0) worked out at 63.84 mm^3; with Pan02 tumors (Pan02, day 4) it was 80.36 mm^3; in the data set with Pan02 tumors (Pan02, day 7) it was 108.77 mm^3; with Pan02 tumors (Pan02, day 11), 152.24 mm^3; with Pan02 tumors (Pan02, day 14), 250.08 mm^3; in the data set with Pan02 tumors (Pan02, day 18) it was 410.18 mm^3. Moreover, the “tumor volume, Mean” value with Pan02 tumors (Pan02, day 21) came to 601.42 mm^3; in the data set with Pan02 tumors (Pan02, day 25), 735.54 mm^3; in the data set with Pan02 tumors (Pan02, day 28), 912.95 mm^3; in the data set with Pan02 tumors (Pan02, day 32) it was 1316.29 mm^3; in the data set with Pan02 tumors (Pan02, day 34), 1507.92 mm^3. Also, in the data set with Pan02 tumors (Pan02 model, compared with the vehicle group), the “anti-tumor response” value was “little anti-tumor response”. In addition, the “Body weight, Mean” value came out at 21.21 g in data set [3] (Pan02, day 4); 21.10 g in data set [3] (Pan02, day 11); 23.00 g in data set [3] (Pan02, day 25); 22.00 g in data set [3] (Pan02, day 28); 22.65 g in data set [3] (Pan02, day 32); 23.31 g in data set [3] (Pan02, day 34). Further, the “body weight loss / tolerability” value in data set [3] (Pan02 model) was “Slight body weight loss”.
